According to ChEMBL document CHEMBL2021794, “Synthesis, σ₁, σ₂-receptors binding affinity and antiproliferative action of new C1-substituted adamantanes” (Bioorg Med Chem, 2012):
Active and inactive are the calls of the source. The calls are words filed in the database; no cut-off is given here.

Tests used:
PC-3 [1] = assay: Cell cycle arrest in human PC3 cells assessed as accumulation at G1 phase at 15 uM after 24 hrs by propidium iodide staining based flow cytometry (reference value: 36%); assay type: functional
PC-3 [2] = assay: Induction of apoptosis in human PC3 cells assessed as cleaved caspase-3 containing cells at 5 uM after 24 hrs by FACS analysis (reference value: 3%); assay type: functional
BXPC-3 [3] = assay: Cell cycle arrest in human BxPC3 cells assessed as accumulation at < G1 phase at 5 uM after 24 hrs by propidium iodide staining based flow cytometry (reference value: 9%); assay type: functional
PC-3 [4] = assay: Cell cycle arrest in human PC3 cells assessed as accumulation at < G1 phase at 50 uM after 24 hrs by propidium iodide staining based flow cytometry (reference value: 4%); assay type: functional
[5] = Displacement of [3H]BTX-B from Na+ channel site 2 after 60 mins by liquid scintillation spectroscopy
IGROV-1 [6] = assay: Induction of apoptosis in human IGROV1 cells assessed as cleaved caspase-3 containing cells at 50 uM after 24 hrs by FACS analysis (reference value: 4%); assay type: functional
PC-3 [7] = assay: Cell cycle arrest in human PC3 cells assessed as accumulation at < G1 phase at 0.5 uM after 24 hrs by propidium iodide staining based flow cytometry (reference value: 4%); assay type: functional
PC-3 [8] = assay: Cell cycle arrest in human PC3 cells assessed as accumulation at G1 phase at 0.5 uM after 24 hrs by propidium iodide staining based flow cytometry (reference value: 36%); assay type: functional
IGROV-1 [9] = assay: Induction of apoptosis in human IGROV1 cells assessed as early apoptotic cells at 5 uM after 24 hrs by Annexin V/7-AAD staining based flow cytometry (reference value: 9%); assay type: functional
IGROV-1 [10] = assay: Induction of apoptosis in human IGROV1 cells assessed as late apoptotic cells at 50 uM after 24 hrs by Annexin V/7-AAD staining based flow cytometry (reference value: 4%); assay type: functional
LOX IMVI = assay: Growth inhibition of human LOXIMVI cells after 48 hrs by SRB assay; assay type: functional
BXPC-3 [11] = assay: Induction of apoptosis in human BxPC3 cells assessed as healthy cells at 50 uM after 24 hrs by Annexin V/7-AAD staining based flow cytometry (reference value: 77%); assay type: functional
IGROV-1 [12] = assay: Induction of apoptosis in human IGROV1 cells assessed as late apoptotic cells at 5 uM after 24 hrs by Annexin V/7-AAD staining based flow cytometry (reference value: 4%); assay type: functional
PC-3 [13] = assay: Cell cycle arrest in human PC3 cells assessed as accumulation at G2 phase at 0.5 uM after 24 hrs by propidium iodide staining based flow cytometry (reference value: 13%); assay type: functional
PC-3 [14] = assay: Induction of apoptosis in human PC3 cells assessed as cleaved caspase-3 containing cells at 15 uM after 24 hrs by FACS analysis (reference value: 3%); assay type: functional
Mus musculus = assay: Toxicity in CD1 mouse assessed as weight loss at 40 mg/kg, ip after 3 to 4 weeks chronic treatment; assay type: organism-based; set-up: dose 40 mg/kg, route intraperitoneal; details: in vivo
PC-3 [15] = assay: Induction of apoptosis in human PC3 cells assessed as early apoptotic cells at 15 uM after 24 hrs by Annexin V/7-AAD staining based flow cytometry (reference value: 5%); assay type: functional
MCF7 = assay: Cytotoxicity against human MCF7 cells after 48 hrs by trypan blue assay; assay type: functional, cell-based
IGROV-1 [16] = assay: Cell cycle arrest in human IGROV1 cells assessed as accumulation at G2 phase at 15 uM after 24 hrs by propidium iodide staining based flow cytometry (reference value: 19%); assay type: functional
BXPC-3 [17] = assay: Cell cycle arrest in human BxPC3 cells assessed as accumulation at G1 phase at 5 uM after 24 hrs by propidium iodide staining based flow cytometry (reference value: 41%); assay type: functional
PC-3 [18] = assay: Cell cycle arrest in human PC3 cells assessed as accumulation at S phase at 15 uM after 24 hrs by propidium iodide staining based flow cytometry (reference value: 42%); assay type: functional
SK-HEP1 = assay: Growth inhibition of human SKHEP1 cells after 48 hrs by SRB assay; assay type: functional; details: SK-HEP1, 48 h
PC-3 [19] = assay: Induction of apoptosis in human PC3 cells assessed as early apoptotic cells at 50 uM after 24 hrs by Annexin V/7-AAD staining based flow cytometry (reference value: 5%); assay type: functional
BXPC-3 [20] = assay: Antitumor activity against human BxPC3 cells xenografted in SCID mouse assessed as reduction in tumor volume at 40 mg/kg, ip for 5 consecutive days and 2 administrations for one more week; assay type: functional; details: BXPC-3, ip, route intraperitoneal
IGROV-1 [21] = assay: Cell cycle arrest in human IGROV1 cells assessed as accumulation at < G1 phase at 0.5 uM after 24 hrs by propidium iodide staining based flow cytometry (reference value: 4%); assay type: functional
IGROV-1 [22] = assay: Cell cycle arrest in human IGROV1 cells assessed as accumulation at S phase at 0.5 uM after 24 hrs by propidium iodide staining based flow cytometry (reference value: 29%); assay type: functional
BXPC-3 [23] = assay: Induction of apoptosis in human BxPC3 cells assessed as early apoptotic cells at 0.5 uM after 24 hrs by Annexin V/7-AAD staining based flow cytometry (reference value: 11%); assay type: functional
BXPC-3 [24] = assay: Induction of apoptosis in human BxPC3 cells assessed as late apoptotic cells at 50 uM after 24 hrs by Annexin V/7-AAD staining based flow cytometry (reference value: 9%); assay type: functional
BXPC-3 [25] = assay: Cell cycle arrest in human BxPC3 cells assessed as accumulation at < G1 phase at 15 uM after 24 hrs by propidium iodide staining based flow cytometry (reference value: 9%); assay type: functional
IGROV-1 [26] = assay: Induction of apoptosis in human IGROV1 cells assessed as early apoptotic cells at 0.5 uM after 24 hrs by Annexin V/7-AAD staining based flow cytometry (reference value: 9%); assay type: functional
IGROV-1 [27] = assay: Cell cycle arrest in human IGROV1 cells assessed as accumulation at G2 phase at 5 uM after 24 hrs by propidium iodide staining based flow cytometry (reference value: 19%); assay type: functional
PC-3 [28] = assay: Induction of apoptosis in human PC3 cells assessed as healthy cells at 50 uM after 24 hrs by Annexin V/7-AAD staining based flow cytometry (reference value: 92%); assay type: functional
BXPC-3 [29] = assay: Induction of apoptosis in human BxPC3 cells assessed as early apoptotic cells at 50 uM after 24 hrs by Annexin V/7-AAD staining based flow cytometry (reference value: 11%); assay type: functional
BXPC-3 [30] = assay: Cell cycle arrest in human BxPC3 cells assessed as accumulation at G2 phase at 0.5 uM after 24 hrs by propidium iodide staining based flow cytometry (reference value: 12%); assay type: functional
IGROV-1 [31] = assay: Induction of apoptosis in human IGROV1 cells assessed as cleaved caspase-3 containing cells at 15 uM after 24 hrs by FACS analysis (reference value: 4%); assay type: functional
BXPC-3 [32] = assay: Cell cycle arrest in human BxPC3 cells assessed as accumulation at >G2 phase at 50 uM after 24 hrs by propidium iodide staining based flow cytometry (reference value: 6%); assay type: functional
NHDF = assay: (§1) Growth inhibition of NHDF cells after 48 hrs by SRB assay; assay type: cell-based; details: human, nhdf, 48 h
[33] = as §1; assay type: cell-based; details: human, NHDF cells

Structure (SMILES): CN1CCN(c2ccc(C(c3ccccc3)C34CC5CC(CC(C5)C3)C4)cc2)CC1 (stereo not drawn)
- Activity (PC-3 [1]): 49%
- Activity (PC-3 [2]): 2%
- Activity (BXPC-3 [3]): 8%
- Activity (PC-3 [4]): 10%
- IC50 [5]: 1.2 µM
- Activity (IGROV-1 [6]): 68%
- Activity (PC-3 [7]): 9%
- Activity (PC-3 [8]): 33%
- Activity (IGROV-1 [9]): 8%
- Activity (IGROV-1 [10]): 16%
- GI50 (LOX IMVI): 3.36 µM
- LC50 (concentration killing 50% of cells) (LOX IMVI): 8.41 µM
- TGI (LOX IMVI): 5.88 µM
- Activity (BXPC-3 [11]): 26%
- Activity (IGROV-1 [12]): 3%
- Activity (PC-3 [13]): 14%
- Activity (PC-3 [14]): 3%
- Activity (Mus musculus): Non-toxic
- Activity (PC-3 [15]): 6%
- Activity (MCF7): Active
- Activity (IGROV-1 [16]): 21%
- Activity (BXPC-3 [17]): 43%
- Activity (PC-3 [18]): 33%
- GI50 (SK-HEP1): 6.05 µM
- TGI (SK-HEP1): 28.4 µM
- CC50 (SK-HEP1; read-out: LC50 (the source's name)): 77.6 µM
- Activity (PC-3 [19]): 24%
- inhibition in vivo at 40 mg/kg (BXPC-3 [20]): 37.8%
- Activity (IGROV-1 [21]): 3%
- Activity (IGROV-1 [22]): 28%
- Activity (BXPC-3 [23]): 10%
- Activity (BXPC-3 [24]): 33%
- Activity (BXPC-3 [25]): 8%
- Activity (IGROV-1 [26]): 8%
- Activity (IGROV-1 [27]): 19%
- Activity (PC-3 [28]): 61%
- Activity (BXPC-3 [29]): 15%
- Activity (BXPC-3 [30]): 12%
- Activity (IGROV-1 [31]): 30%
- Activity (BXPC-3 [32]): 5%
- LC50 (NHDF): 100 µM
- TGI (NHDF): 9.6 µM
- GI50 at 48 h [33]: 5.3 µM
